{
  "source": "paper PMC12521527",
  "about": "“In vivo self-assembled nano-PROTAC for the dual degradation of AR and HSP90 to overcome castration-resistant prostate cancer resistance” (Signal Transduction and Targeted Therapy, 2025)",
  "key": {"CRBN protein": {"target": "CRBN protein (Homo sapiens, UniProt Q96SW2)", "sequence (Q96SW2 whole entry)": "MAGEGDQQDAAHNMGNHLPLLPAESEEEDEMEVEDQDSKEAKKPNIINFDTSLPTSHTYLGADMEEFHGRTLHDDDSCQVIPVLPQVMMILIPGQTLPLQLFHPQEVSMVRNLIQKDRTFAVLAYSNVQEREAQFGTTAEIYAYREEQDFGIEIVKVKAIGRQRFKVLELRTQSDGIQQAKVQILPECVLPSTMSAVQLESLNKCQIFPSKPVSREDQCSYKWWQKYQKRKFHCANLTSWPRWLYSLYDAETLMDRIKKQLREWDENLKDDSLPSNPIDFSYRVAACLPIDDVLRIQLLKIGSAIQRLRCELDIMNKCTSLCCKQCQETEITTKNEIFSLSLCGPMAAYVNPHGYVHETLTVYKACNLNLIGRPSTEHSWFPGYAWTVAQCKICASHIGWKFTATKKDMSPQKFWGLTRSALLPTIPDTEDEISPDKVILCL", "experiment": "MST binding affinity, Psa-AR and CRBN protein", "conditions": "RED-NHS-labeled CRBN 400 nM, PBS-T, 22 °C, n = 3", "source_text": "Fig. 3 Polynary nanocomposite (AR: Psa-AR: CRBN) formation. a Dose‒response curve for the binding interaction between Psa-AR and the AR protein; n = 3 per group. b Dose‒response curve for the binding interaction between Psa-AR and the CRBN protein; n = 3 per group. c Dose‒response curve for the binding interaction between the binary complex (Psa-AR: AR) and CRBN, n = 3 per group. d In vitro Psa-AR self-assembly, protein binding and degradation. e Representative 22Rv1 cell CLSM images of FITC-labeled Psa-AR assembly (green channel) interacting with HSP90 (red channel) and its colocalization analysis (1–1’). […] Scale bar: 10 μm.\nMST (NanoTemper Technologies GmbH, Munich, Germany) was utilized to evaluate the binding affinity between Psa-AR and RED-NHS-labeled PSMA, AR, or CRBN proteins. The PSMA, AR, and CRBN proteins were labeled with the Protein Labeling Kit RED-NHS 2nd Generation (Amine Reactive). RED-PSMA, RED-AR, and RED-CRBN proteins were diluted to a final concentration of 400 nM with PBS-T buffer (0.05% Tween 20), where the fluorescence signals satisfied the typical detection limit of the Monolith NT.115 instrument (NanoTemper Technologies). The binding affinity between Psa-AR and the RED-NHS-labeled AR protein was assessed. […] Then, 10 µL of RED-CRBN was added to each sample to achieve a final concentration of 400 nM. […] The data were analyzed by NanoTemper analysis software."}, "22Rv1 xenograft tumor": {"test_system": "22Rv1 xenograft tumor", "experiment": "Antitumor efficacy in 22Rv1 xenograft mice", "assay_type": "in vivo, BALB/c nude mice", "conditions": "for tumor volume / median survival: n = 6", "source_text": "To evaluate the therapeutic potential and superiority of Psa-AR in prostate cancer, we established subcutaneous xenograft tumor models using AR-mutant 22Rv1 cells.[51] All procedures strictly complied with the Guide for the Care and Use of Laboratory Animals and were approved by the Committee for Animal Research of the National Center for Nanoscience and Technology. When the tumor volume reached ~100 mm³, 22Rv1-bearing mice were randomized into three groups (n = 6/group): the PBS control, Psa-AR, and P-AR groups. Treatments were administered via tail vein injection every other day for five cycles. The tumor volume and body weight were monitored every other day for 20 days (Fig. 6a). […] The individual tumor growth curves for each group are presented in Supplementary Fig. 20. No obvious body weight loss was observed during treatment (Fig. 6c). […] To elucidate the mechanistic basis of tumor suppression, we quantitatively assessed AR and HSP90 protein expression in excised tumor tissues through IF. […] This dual-target degradation profile directly correlates with the observed therapeutic efficacy, validating the assembly driven target engagement and degradation strategy. […] To address the critical limitations of conventional PROTACs, particularly the Hook effect-induced nonlinear pharmacokinetics and narrow therapeutic window. We rigorously evaluated the dose-responsive antitumor efficacy of Psa-AR in 22Rv1 xenograft models. Mice bearing subcutaneous tumors received escalating doses (10, 20, or 30 mg/kg) via intravenous administration every 48 h for five consecutive treatment cycles. The tumor volume and body weight were evaluated for 20 days. Tumor volume was suppressed in a dose-dependent manner, with a mean tumor volume of […], a mean tumor volume of 536 mm^3 at 20 mg/kg and a mean tumor volume of 220 mm^3 at 10 mg/kg (Fig. 6h). The individual tumor growth curves for each group are presented in Supplementary Fig. 21. […] IF analysis of tumor sections provided spatially resolved dose-dependent quantification of AR and HSP90 proteolysis. […] Collectively, the dose-dependent tumor suppression and coordinated target proteolysis observed in the 22Rv1 xenograft model mechanistically validated the therapeutic superiority of in situ self-assembled Psa-AR. To systematically evaluate the therapeutic advantages of the dual-protein targeting strategy of Psa-AR through simultaneous degradation of AR and HSP90 in overcoming tumor drug resistance, this study compared the antitumor efficacy of Psa-AR with that of current clinical regimens (including the AR inhibitor enzalutamide, the HSP90 inhibitor pimitespib, and their combination) in 22Rv1 xenograft models (Fig. 7a). The experimental protocol was designed as follows: When the tumor volume reached ~100 mm³, the tumor-bearing mice were\nFig. 6 In vivo antitumor efficacy of Psa-AR. a Schematic illustration of the tumor inoculation and treatment protocol for 22Rv1 xenograft mice. (n = 6 per group) b Observation of the tumor inhibitory effect on 22Rv1 xenograft mice in PBS, P-AR, or Psa-AR (20 mg/kg in 200 μL of PBS) over 20 days of treatment. c Body weight changes in 22Rv1 xenograft mice in different treatment groups over 20 days. d Kaplan‒Meier survival curves of 22Rv1 xenograft mice in different groups over 20 days of treatment. e Immunofluorescence analysis of AR protein levels in 22Rv1 tumor tissues after treatment with PBS, P-AR, or Psa-AR (20 mg/kg in 200 μL of PBS) for 20 days. Scale bar: 20 μm. f Immunofluorescence analysis of the HSP90 protein levels in 22Rv1 tumor tissues after treatment with PBS, P-AR, or Psa-AR (20 mg/kg in 200 μL of PBS) for 20 days. Scale bar: 20 μm. g Terminal deoxynucleotidyl transferase (TdT) dUTP nick-end labeling (TUNEL) staining of tumors after treatment with PBS, P-AR, or Psa-AR (20 mg/kg in 200 μL of PBS) for 20 days. […]"}},
  "note": "Numbered stars: 1 amine (or outer) side, 2 acyl side, 3 side chain; on linkers, the order of the positions; unused ones are H or OH. Square brackets hold non-standard residues; d marks the D form. Peptide text beside a SMILES is read from it. * marks the point of attachment. X2 = CC1(C)C(=O)N(c2ccc(C#N)c(C(F)(F)F)c2)C(=S)N1c1ccc(C(=O)*)c(F)c1; X1 = O=C1CCC(N2C(=O)c3cccc(N(CC(=O)[*:2])[*:1])c3C2=O)C(=O)N1; EuK = O=C(O)CC[C@H](NC(=O)N[C@@H](CCCCN*)C(=O)O)C(=O)O; 2Nal = N[C@@H](Cc1ccc2ccccc2c1)C(=O)O",
  "data": [
    {"compound": "CC1(C)C(=O)N(c2ccc(C#N)c(C(F)(F)F)c2)C(=S)N1c1ccc(C(=O)NCCCC[C@H](NC(=O)CNc2cccc3c2C(=O)N(C2CCC(=O)NC2=O)C3=O)C(=O)N[C@@H](CS)C(=O)N[C@@H](CCC(N)=O)C(=O)N[C@@H](Cc2ccc(O)cc2)C(=O)N[C@@H](CC(N)=O)C(=O)N[C@@H](CCC(N)=O)C(=O)N[C@@H](Cc2ccc(O)cc2)C(=O)N[C@@H](Cc2ccc(O)cc2)C(=O)N[C@@H](Cc2ccc3ccccc3c2)C(=O)NCCCC[C@H](NC(=O)N[C@@H](CCC(=O)O)C(=O)O)C(=O)O)c(F)c1", "note": "(stereo partly drawn) [Psa-AR] (H-[X1]K(X2)CQYNQYY[2Nal]-EuK)", "values": [
      {"measurement": "Kd", "setting": "CRBN protein", "value": 1060, "unit": "nM"},
      {"measurement": "extension of median survival compared with P-AR controls", "setting": "22Rv1 xenograft tumor; 20 mg/kg study", "value": 1.8, "unit": "fold"},
      {"measurement": "extension of median survival compared with PBS controls", "setting": "22Rv1 xenograft tumor; 20 mg/kg study", "value": 2.2, "unit": "fold"},
      {"measurement": "tumor volume", "setting": "22Rv1 xenograft tumor; 20 mg/kg tail vein every other day, five cycles, 20 days, PBS 1003 mm^3", "value": 347, "unit": "mm^3"},
      {"measurement": "TUNEL apoptotic index of tumor sections", "setting": "22Rv1 xenograft tumor; 20 mg/kg, 20 days, compared with PBS control and P-AR", "value": "significant increase in the apoptotic index"},
      {"measurement": "AR and HSP90 protein expression in excised tumor tissues", "setting": "22Rv1 xenograft tumor; IF, 20 mg/kg, 20 days", "value": "AR and HSP90 reduction"},
      {"measurement": "median survival", "setting": "22Rv1 xenograft tumor; K-M analysis, 20 mg/kg study, PBS 22 days", "value": 48, "unit": "days"},
      {"measurement": "TUNEL analysis of tumor tissue sections", "setting": "22Rv1 xenograft tumor; comparison study, 30 mg/kg, 20 days", "value": "increased activation of tumor apoptosis"},
      {"measurement": "tumor volume", "setting": "22Rv1 xenograft tumor; comparison study, 20 days, Psa-AR 30 mg/kg i.v. every 2 days x5, enzalutamide 25 mg/kg, pimitespib 15 mg/kg, PBS 1017 mm^3", "value": 220, "unit": "mm^3"},
      {"measurement": "median survival", "setting": "22Rv1 xenograft tumor; comparison study, PBS 21 days", "value": 46, "unit": "days"},
      {"measurement": "body weight during the monitoring cycle", "setting": "22Rv1 xenograft tumor; dose study, 10, 20, or 30 mg/kg, 20 days", "value": "no significant change in the body weight"},
      {"measurement": "mean tumor volume at 20 mg/kg", "setting": "22Rv1 xenograft tumor; dose study, intravenous every 48 h, five cycles, 20 days", "value": 536, "unit": "mm^3"}
    ]}
  ]
}
